Test results taken from patent US6566359B1, “2,4,6-trimethyl-1,4-dihydro-pyridine-3,5-dicarboxylic acid esters as neuroprotective drugs” (Board of Supervisors of Louisiana State University and …, priority 2002, dated 2003).
Where “and” joins values, the source holds several entries; their conditions need not be identical. Equal entries are not always repeated.

What was measured:
[1] = molecular target: intracellular type PAF receptor (rat brain microsomal preparations) (Rattus norvegicus, UniProt P46002); test: Competition for 3H-PAF binding to rat brain cortex microsomal membranes; settings: rat brain cortex microsomal preparation
Description: (§1) Binding studies were performed on subcellular fractions of tissues obtained from rat brain cortex, according to procedures described in V. Marcheselli et al., “Distinct platelet-activating factor binding sites in synaptic endings and in intracellular membranes of rat cerebral cortex,” J. biol. Chem., vol. 265, pp. 9140-9145 (1990). Freshly dissected brain tissues were homogenized in ice-cold buffer (50 mM Tris-HCl, 2 mM EGTA, 5 mM PMSF, 250 mM sucrose, 7.4 pH). Subcellular fractions were obtained by differential centrifugation. The microsomal fraction was sedimented after 100,000×g for 1 hour centrifugation. In addition, three cell lines from Chinese hamster ovary (CHO) with varying expression of PAF receptors, CHO-A, CHO-B, and CHO-C cells (from Dr. Takao Shiizu, University of Tokyo, Tokyo, Japan) were cultured to the fourth-passage cells. These cells were cultured to confluence, then detached from their culturing flasks, and pelleted by rapid centrifugation (3,000 rpm, 10 min). Cellular pellets were homogenized in ice-cold buffer as described above. Freshly obtained microsomal fractions or CHO cellular homogenates were utilized for saturation, displacement, and competition studies using ^3H-PAF as the hot ligand, unlabeled-PAF to detect non-specific binding, and a LAU-0900 series compound to displace by competition ^3H-PAF bound to a receptor.

human COX-2 promoter [2] = test: PAF-induced COX-2 promoter-luciferase transcription in CV-1 cells; assay type: cell-based; settings: 100 nM compound, 100 nM PAF
Description: (§2) To test the ability of LAU-0900 series compounds to inhibit COX-2 expression, a kidney cell line was transiently transfected with the 830-base-pair human COX-2 promoter construct (proximal to the transcription start site) fused to the luciferase gene as a reporter as described below.
(§3) Transfection of CV-1 cells with human COX-2promoterfused with LUC: C V-1 Cells (African green monkey kidney cell line, ATCC # CCL-17) were grown in DMEM-F12 (GIBCO-BRL, Rockville, Md.) supplemented with 10% FBS (fetal bovine serum) in 6-well plates. At 80% confluence, the cells were transfected with 10 μg human COX-2 promoter-LUC construct (containing 830 base pairs of the human COX-2 promoter (donated by Dr. Stephen Prescot, Huntsman Cancer Institute, Salt Lake City, Utah) using a liposomal transfection reagent (DOTAP, Roche Diagnostics, Gmbh, Mannheim, Germany). Promoterless β-galactosidase construct (Promega, Madison, Wis.) was co-transfected to assess transfection efficiency. Three hours after transfection at 37° C., the medium was removed, and the cells were washed with phonsphate-buffered saline solution, pH 7.2 (PBS; Gibco-BRL, Rockville Md. The plates were further incubated at 37° C. in complete medium DMEM-F12 with 10% FBS for about 8-10 hr. Before the addition of the inducers of COX-2, PAF (100 nM) or IL-1β (10 ng/ml), the CV-1-transfected cells were serum-starved for 8 hr at 37° C. After the addition of the inducers, the cells were incubated for 8-10 hr at 37° C. Then the medium was removed, the cells were washed with PBS, harvested, and frozen at −80° C. until used for assays.
(§4) To test the effectiveness of the LAU-0900 series compounds, the transfected cells were treated for 1 hr with 100 nM of various LAU-0900 series compounds before the addition of the inducers (either PAF or IL-1β, and the LAU-0900 compound remained in the medium throughout the incubation period.
(§5) Luciferase assay of transfected CV-1 cells: Frozen cells were homogenized in 300 μl luciferase assay buffer (“ALL”, Analytical Luminescence Laboratory, San Diego, Calif.), and cellular debris was collected as a pellet by centrifugation at 2800×g for 20 min at 4° C. Supernatants (20-30 μl) were normalized to 1 μg/ml of total protein content, and were mixed with 70-80 μl ALL buffer. Reactions were initiated by injection of 100 μl of 1 mM luciferin (Sigma Chemical Co., St. Louis, Mo.). The relative light units were determined by using an ALL luminometer that recorded over 20-second intervals.

human COX-2 promoter [3] = test: IL-1β-induced COX-2 promoter-luciferase transcription in CV-1 cells; assay type: cell-based; settings: 100 nM compound, 10 nM IL-1β
Description: as §2, §3, §4, §5

COX-2 mRNA = COX-2 mRNA expression after cryogenic injury (vasogenic cerebral edema), Northern blot; assay type: in vivo, Sprague-Dawley rats; settings: rat
Description: Brain COX-2 gene expression is known to be enhanced as a result of injury as well as by seizures (Marcheselli and Bazan, 1996), and PAF receptors are involved in COX-2 expression (Bazan et al, 1994). To further test the LAU-0900 series compounds as PAF antagonists, the compounds were tested in an in vivo model for the potential blocking of injury-induced COX-2 induction. Adult Sprague-Dawley rats, 175 to 250 g body weight, were purchased from a commercial breeder (Charles River Laboratories, Wilmington, Mass.). One group of four rats received an intra-cerebroventricular injection of LAU-0903 (10 mg/kg in DMSO as a vehicle), 15 min before the generation of cerebral edema. Another group of four rats received an intraperitoneal injection of desxmethasone every 8 hr for a period of 24 hr prior to injury. Animals were immobilized by ether anesthesia, and vasogenic cerebral edema was generated by the application of a liquid nitrogen-cooled probe for 1 min on the parietal region of the skull. The rats were allowed to recover for either 2 or 6 hr before being decapitated to sample the brain. Total brain tissues were obtained, and total-RNA was extracted. The RNA was then assayed by Northern blot analysis for COX-2 mRNA. […] Autoradiography or phosphorimage quantification was performed.

[4] = molecular target: T1, cell-surface-type PAF receptor over-expressed in CHO-B cells (Cavia porcellus, UniProt P21556); test: Competition for 3H-PAF binding to CHO-B cell homogenates
T1 construct: expressed in transfected cells; host or cells: Chinese hamster ovary cells: CHO-B (high expression) and CHO-A (mild expression), used as cell homogenates
Description: as §1
(§6) See B. Liu et al., “Implication of protein kinase C alpha in PAF-stimulated phospholipase D Activation in Chinese hamster ovary (CHO) cells expressing PAF receptor,” Biochem. Biophys. Res. Commun., vol.214, pp.418-423 (1995). […] Both the constants of inhibition (KI) and 50% of inhibitory activity (IC50) were significant at a low concentration of LAU-0903.

[5] = Evans Blue accumulation in brain cortex in vasogenic cerebral edema; assay type: in vivo, rat; settings: LAU-0903 30 μg/kg intra-ventricularly 15 min before injury; dexamethasone 6.2 μg/kg i.p. every 8 hr for 24 hr; 2 hr and 12 hr after injury
[6] = molecular target: T2, PAF receptor in CHO-A cells (moderately exp PAF-R) (Cavia porcellus, UniProt P21556); test: Competition for 3H-PAF binding to CHO-A cell homogenates
T2 construct: expressed in transfected cells; host or cells: Chinese hamster ovary cells: CHO-B (high expression) and CHO-A (mild expression), used as cell homogenates
Description: Binding studies were performed on subcellular fractions of tissues obtained from rat brain cortex, according to procedures described in V. Marcheselli et al., “Distinct platelet-activating factor binding sites in synaptic endings and in intracellular membranes of rat cerebral cortex,” J. biol. Chem., vol. 265, pp. 9140-9145 (1990). Freshly dissected brain tissues were homogenized in ice-cold buffer (50 mM Tris-HCl, 2 mM EGTA, 5 mM PMSF, 250 mM sucrose, 7.4 pH). Subcellular fractions were obtained by differential centrifugation. The microsomal fraction was sedimented after 100,000×g for 1 hour centrifugation. In addition, three cell lines from Chinese hamster ovary (CHO) with varying expression of PAF receptors, CHO-A, CHO-B, and CHO-C cells (from Dr. Takao Shiizu, University of Tokyo, Tokyo, Japan) were cultured to the fourth-passage cells. These cells were cultured to confluence, then detached from their culturing flasks, and pelleted by rapid centrifugation (3,000 rpm, 10 min). Cellular pellets were homogenized in ice-cold buffer as described above. Freshly obtained microsomal fractions or CHO cellular homogenates were utilized for saturation, displacement, and competition studies using ^3H-PAF as the hot ligand, unlabeled-PAF to detect non-specific binding, and a LAU-0900 series compound to displace by competition ^3H-PAF bound to a receptor. […]

[7] = system: CHO-C cells (do not exp PAF-R); test: Competition for 3H-PAF binding to CHO-C cell homogenates
Description: as §1, §6

[8] = MCA-O with 21 days reperfusion, Cresil-Violet histology; assay type: in vivo, C57-bl/6 mice; settings: 30 mg/kg i.p. once 1 hr after onset of reperfusion
Description: In a second group of experiments, C57-bl/6 mice were treated with either a sham procedure, or with 1 hr with MCA-O followed by a reperfusion period of 21 days. Cresil-violet staining was used to assess brain damage in brain slices obtained as above. […] (Data not shown.). […] (Data not shown).
In a third set of experiments, the MCA-O treated mice were injected once with the LAU-0900 series compounds (LAU-0901, LAU-0904, and LAU-0911; at 30 mg/kg) or vehicle 1 hr after the onset of reperfusion. The LAU-0900 compounds were solubilized in 45% 2-hydroxypropyl-β-cyclodextrine (Sigma Chemical Co.), and delivered intraperitoneally. The mice were reperfused for 21 days, and killed. Coronal sections of mouse brains were processed for histology, and stained with Cresil-Violet. Sections from individual animals were analyzed, with pictures of the right side (infarcted) of the brain compared to the left side, which show almost no damage.
(Data not shown). […] Almost normal morphology was found in the brains of the LAU-0900-treated animals, indicating a high degree of protection. (Data not shown), even though administered 1 hr after the initiation of reperfusion.

[9] = Middle cerebral artery occlusion (MCA-O) stroke model, infarct volume by TTC; assay type: in vivo, C57BL/6 mice; settings: 30 mg/kg 1 hr after reperfusion following 1 hr of MCA-O

T1 sequence (P21556 whole entry): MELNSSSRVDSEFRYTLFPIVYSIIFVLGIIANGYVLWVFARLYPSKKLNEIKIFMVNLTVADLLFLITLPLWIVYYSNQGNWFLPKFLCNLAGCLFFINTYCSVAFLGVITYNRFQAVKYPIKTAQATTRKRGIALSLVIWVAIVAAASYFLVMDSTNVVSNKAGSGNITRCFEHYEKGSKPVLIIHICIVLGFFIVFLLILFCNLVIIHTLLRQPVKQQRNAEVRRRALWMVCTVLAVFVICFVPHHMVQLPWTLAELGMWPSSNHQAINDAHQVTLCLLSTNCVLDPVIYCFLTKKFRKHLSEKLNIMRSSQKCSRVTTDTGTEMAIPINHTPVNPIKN
T2 sequence (P21556 whole entry): as above
Chain of intracellular type PAF receptor (rat brain microsomal preparations) (P46002 whole entry): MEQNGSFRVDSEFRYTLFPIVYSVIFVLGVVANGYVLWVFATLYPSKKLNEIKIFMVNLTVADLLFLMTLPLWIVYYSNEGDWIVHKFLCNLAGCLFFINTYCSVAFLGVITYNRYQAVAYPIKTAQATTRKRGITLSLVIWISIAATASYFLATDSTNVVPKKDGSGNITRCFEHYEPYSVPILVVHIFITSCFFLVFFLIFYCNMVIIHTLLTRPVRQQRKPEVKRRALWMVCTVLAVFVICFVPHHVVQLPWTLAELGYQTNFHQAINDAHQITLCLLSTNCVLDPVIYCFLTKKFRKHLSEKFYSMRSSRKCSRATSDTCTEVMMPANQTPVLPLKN

Compound: COC(=O)C1=C(C)NC(C)=C(C(=O)OCCCSc2ccc(-n3ccnc3)cc2)C1C (stereo not shown) [LAU-0903, 2,4,6-Trimethyl-1,4-dihydro-pyridine-3,5-dicarboxylic acid 5-[3-(imidazol-1-yl-phenylsulphanyl)]-propyl-1-ester 3-methyl ester]
- Competitive activity at 3H-PAF binding sites (curve profile) [1]: competitive activity at both binding sites
- Inhibition of COX-2 transcription induced by PAF (human COX-2 promoter [2]): inhibited
- Inhibition of COX-2 transcription induced by IL-1β (human COX-2 promoter [3]): inhibited
- Inhibition of cryogenically induced COX-2 mRNA (COX-2 mRNA; 10 mg/kg intra-cerebroventricular 15 min before injury): more than 50%
- Duration of COX-2 mRNA inhibition after a single injection (COX-2 mRNA; 10 mg/kg intra-cerebroventricular): up to 6 hours
- Significance of 3H-PAF displacement ([4]; CHO-B cell homogenates): significant displacement
- IC50 ([4]; CHO-B homogenates (heavily overexpress PAF-R)): ~0.0538 nM and 0.0538 nM
- Effect on accumulation of Evans Blue in brain cortex [5]: protective effect
- KI ([6]; CHO-A homogenates): No displacement
- IC50 ([6]; CHO-A homogenates (moderately express PAF-R)): No displacement
- KI ([7]; CHO-C homogenates): No displacement
- IC50 ([7]; CHO-C homogenates (do not express PAF-R)): No displacement

Compound: COC(=O)C1=C(C)NC(C)=C(C(=O)OCCCOc2cc(OC)c(OC)c(OC)c2)C1C (stereo not shown) [LAU-0911, 2,4,6-Trimethyl-1,4-dihydro-pyridine-3,5-dicarboxylic acid 5-(3,4,5-trimethoxyphenoxy)-propyl-1-ester 3-methyl ester]
- Inhibition of COX-2 transcription induced by PAF (human COX-2 promoter [2]): inhibited
- Protection from brain damage (Cresil-Violet histology) [8]: significant protection
- Inhibition of COX-2 transcription induced by IL-1β (human COX-2 promoter [3]): inhibited
- Reduction of infarcted volume [9]: 40%
